Here are results for 30 molecules from patent US5776903A, “Peptide derivatives usable as zinc endopeptidase 24-15 inhibitors” (Commissariat A l'Energie Atomique, priority 1995, dated 1998).

The structures appear in SMILES notation.

Test [1] addresses endopeptidase 24-15 (Rattus norvegicus, UniProt P24155). Briefly: Inhibition of neurotensin degradation by purified endopeptidase 24-15 (HPLC), inhibition constant Ki. Conditions: for Ki expected for one of the diastereoisomers of the mixture: extrapolated from Ki of the mixture of 4 diastereoisomers; for affinity difference / power factor relative to Cpp-Ala-Pro-Phe-pAb: for the expected single diastereoisomer versus known inhibitor (Ki 7 nM); for SELECTIVITY (ratio Ki24-16 /Ki24-15): selectivity relative to endopeptidase 24-16.
Method: Incubation takes place for 1 hour at 37° C. of 2 nmole (20 μmole/l) of neurotensin, which is a known endopeptidase 24-15 substrate, with 7 μg of purified endopeptidase 24-15 in a final volume of 100 μl of tris-HCl buffer, 50 nM, pH 7.5, in the absence of an inhibitor (control) or in the presence of the peptide tested at concentrations from 10^-11 to 10^-7 mole/l. After 1 hour incubation analysis takes place of the solutions by HPLC. On the basis of this analysis the inhibition constant Ki of the tested peptide is determined.

In test [2] the target is endopeptidase 24-16 (Homo sapiens, UniProt Q9BYT8). Briefly: Inhibition of neurotensin degradation by purified endopeptidase 24-16 (HPLC), inhibition constant Ki. The test is classed as biochemical. The note with it: neurotensin 20 μmole/l, 1 hour at 30° C., tris-HCl pH 7.5. On the procedure:
This example studies the inhibiting effect of the peptides of the invention with respect to endopeptidase 24-16.
To this end, incubation takes place for 1 hour at 30° C. of 2 nmole (20 μmole/l) of neurotensin, which is a known endopeptidase 24-16 substrate with 8 μg of endopeptidase 24-16 purified in a final volume of 100 μl of tris-HCl buffer, 50 mM, pH 7.5, in the absence of peptide (control) or in the presence of the peptide tested at concentrations from 10^-11 to 10^-7 mole/l. After 1 hour of incubation analysis takes place of the solutions by HPLC and the inhibition constant Ki of the tested peptide is determined.

endopeptidase 24-15, sequence (P24155 whole entry): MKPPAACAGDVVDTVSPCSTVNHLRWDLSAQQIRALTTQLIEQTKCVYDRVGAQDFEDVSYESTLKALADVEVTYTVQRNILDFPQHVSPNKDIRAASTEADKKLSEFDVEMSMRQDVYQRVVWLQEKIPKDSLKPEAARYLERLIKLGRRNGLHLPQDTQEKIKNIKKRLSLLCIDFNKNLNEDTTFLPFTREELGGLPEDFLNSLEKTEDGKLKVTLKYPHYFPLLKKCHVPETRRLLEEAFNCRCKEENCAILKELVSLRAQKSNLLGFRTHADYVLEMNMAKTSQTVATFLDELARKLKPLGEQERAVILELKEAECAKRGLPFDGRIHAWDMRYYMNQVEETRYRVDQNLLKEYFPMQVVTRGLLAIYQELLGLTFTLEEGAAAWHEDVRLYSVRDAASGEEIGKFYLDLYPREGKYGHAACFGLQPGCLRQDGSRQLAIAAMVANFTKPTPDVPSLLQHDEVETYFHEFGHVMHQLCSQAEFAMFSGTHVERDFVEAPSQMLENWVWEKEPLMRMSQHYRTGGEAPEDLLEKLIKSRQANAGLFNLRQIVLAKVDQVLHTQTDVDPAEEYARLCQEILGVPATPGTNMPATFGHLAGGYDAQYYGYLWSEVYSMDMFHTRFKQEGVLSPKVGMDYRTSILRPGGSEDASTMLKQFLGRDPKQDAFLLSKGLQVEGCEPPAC
endopeptidase 24-16, sequence (Q9BYT8 38-704): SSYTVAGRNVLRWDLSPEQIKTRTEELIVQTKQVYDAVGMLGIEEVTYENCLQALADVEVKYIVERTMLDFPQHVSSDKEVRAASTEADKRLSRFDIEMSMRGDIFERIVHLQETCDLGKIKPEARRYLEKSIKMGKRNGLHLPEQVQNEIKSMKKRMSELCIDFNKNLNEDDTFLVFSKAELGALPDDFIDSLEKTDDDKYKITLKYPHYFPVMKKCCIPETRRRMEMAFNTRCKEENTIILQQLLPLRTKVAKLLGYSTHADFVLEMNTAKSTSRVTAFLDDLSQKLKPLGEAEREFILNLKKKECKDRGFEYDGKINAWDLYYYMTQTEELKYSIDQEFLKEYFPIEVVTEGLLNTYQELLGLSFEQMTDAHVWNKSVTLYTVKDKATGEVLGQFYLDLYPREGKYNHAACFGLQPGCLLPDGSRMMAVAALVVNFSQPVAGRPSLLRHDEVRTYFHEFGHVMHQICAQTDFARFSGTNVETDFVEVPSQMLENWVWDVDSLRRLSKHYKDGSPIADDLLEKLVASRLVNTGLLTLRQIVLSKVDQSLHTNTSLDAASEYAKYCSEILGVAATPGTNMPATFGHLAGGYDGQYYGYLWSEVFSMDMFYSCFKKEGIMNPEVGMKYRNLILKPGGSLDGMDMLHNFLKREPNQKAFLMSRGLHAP

Regarding `CC(CP(=O)(O)C(Cc1ccccc1)NC(=O)OCc1ccccc1)C(=O)N[C@@H](CCCNC(=N)N)C(=O)N[C@@H](Cc1ccccc1)C(=O)O` (mixture of isomers) [compound 43, Z--Phe .PSI. (PO2 CH2)Ala--Arg--Phe], in test [1], the inhibitory constant (Ki) (in general, a measure of affinity in units of concentration, obtained from inhibition or displacement) was found to be 0.158 nM; the “Ki expected for one of the diastereoisomers of the mixture” value is “approximately 40 pM”; the “affinity difference / power factor relative to Cpp-Ala-Pro-Phe-pAb” value is recorded as “approximately 175”; the “SELECTIVITY (ratio Ki24-16 /Ki24-15)” value amounted to 3335. Moreover, affinity in test [2] was put at a Ki of 527 nM.
As for `CC(C)CC(CP(=O)(O)C(Cc1ccccc1)NC(=O)OCc1ccccc1)C(=O)N[C@@H](CCCNC(=N)N)C(=O)N[C@@H](Cc1ccccc1)C(=O)O` (mixture of isomers) [compound 44, Z--Phe .PSI. (PO2 CH2)Leu--Arg--Phe], in test [1], the Ki turned out to be 14 nM and the “SELECTIVITY (ratio Ki24-16 /Ki24-15)” value is listed as 164. Besides, the affinity in test [2], expressed as Ki, was 2290 nM.
For `N=C(N)NCCC[C@H](NC(=O)CCP(=O)(O)C(Cc1ccccc1)NC(=O)OCc1ccccc1)C(=O)N[C@@H](CCC(N)=O)C(=O)O` (mixture of isomers) [compound 7, Z--Phe .PSI. (PO2 CH2)Gly--Arg--Gln], in that order: 6.1 nM, 113 and 690 nM.
For `N=C(N)NCCC[C@H](NC(=O)CCP(=O)(O)C(Cc1ccccc1)NC(=O)OCc1ccccc1)C(=O)N[C@@H](CC(=O)O)C(=O)O` (mixture of isomers) [compound 20, Z--Phe .PSI. (PO2 CH2)Gly--Arg--Asp], in that order: 352 nM, 58 and 20400 nM.
With `N=C(N)NCCC[C@H](NC(=O)CCP(=O)(O)C(Cc1ccccc1)NC(=O)OCc1ccccc1)C(=O)N[C@@H](Cc1c[nH]cn1)C(=O)O` (mixture of isomers) [compound 14, Z--Phe .PSI. (PO2 CH2)Gly--Arg--His], the Ki is 23.2 nM in test [1] and 3010 nM in test [2]. In addition, in test [1], the “SELECTIVITY (ratio Ki24-16 /Ki24-15)” value worked out at 129.
In turn, `CC(CP(=O)(O)C(Cc1ccccc1)NC(=O)OCc1ccccc1)C(=O)N[C@@H](CCCCN)C(=O)N[C@@H](CC(N)=O)C(=O)O` (mixture of isomers) [compound 32, Z--Phe .PSI. (PO2 CH2)Ala--Lys--Asn] had a Ki in test [1] of 4.9 nM.
Take `CC[C@H](C)[C@H](NC(=O)[C@H](CCCNC(=N)N)NC(=O)CCP(=O)(O)C(Cc1ccccc1)NC(=O)OCc1ccccc1)C(=O)O` (mixture of isomers) [compound 9, Z--Phe .PSI. (PO2 CH2)Gly--Arg--Ile]: in test [1], affinity was put at a Ki of 9.6 nM and the “SELECTIVITY (ratio Ki24-16 /Ki24-15)” value is 61. In test [2], the Ki was 589 nM.
As for `CC(CP(=O)(O)C(Cc1ccccc1)NC(=O)OCc1ccccc1)C(=O)N[C@@H](CCCCN)C(=O)N[C@@H](C)C(=O)O` (mixture of isomers) [compound 24, Z--Phe .PSI. (PO2 CH2)Ala--Lys--Ala], in test [1], the Ki is 0.83 nM and the “SELECTIVITY (ratio Ki24-16 /Ki24-15)” value came out at 525. The Ki in test [2] stood at 436 nM.
For `N=C(N)NCCC[C@H](NC(=O)CCP(=O)(O)C(Cc1ccccc1)NC(=O)OCc1ccccc1)C(=O)N1CCC[C@H]1C(=O)O` (mixture of isomers) [compound 21, Z--Phe .PSI. (PO2 CH2)Gly--Arg--Pro], in that order: 3520 nM, 10 and 36700 nM.
In test [1], `CC(CP(=O)(O)C(Cc1ccccc1)NC(=O)OCc1ccccc1)C(=O)N[C@@H](CCCCN)C(=O)N[C@@H](CC(=O)O)C(=O)O` (mixture of isomers) [compound 40, Z--Phe .PSI. (PO2 CH2)Ala--Lys--Asp] had a Ki of 109 nM.
Consider `N=C(N)NCCC[C@H](NC(=O)CCP(=O)(O)C(Cc1ccccc1)NC(=O)OCc1ccccc1)C(=O)N[C@@H](CC(N)=O)C(=O)O` (mixture of isomers) [compound 13, Z--Phe .PSI. (PO2 CH2)Gly--Arg--Asn], for which, in test [1], the Ki came out at 19.5 nM and the “SELECTIVITY (ratio Ki24-16 /Ki24-15)” value is on record as 71. Besides, the affinity in test [2] corresponds to a Ki of 1380 nM.
For `CCCC[C@H](NC(=O)[C@H](CCCCN)NC(=O)C(C)CP(=O)(O)C(Cc1ccccc1)NC(=O)OCc1ccccc1)C(=O)O` (mixture of isomers) [compound 23, Z--Phe .PSI. (PO2 CH2)Ala--Lys--Nle], in test [1], affinity was put at a Ki of 0.63 nM and the “SELECTIVITY (ratio Ki24-16 /Ki24-15)” value is recorded as 257. Also, the Ki in test [2] turned out to be 162 nM.
`CC(CP(=O)(O)C(Cc1ccccc1)NC(=O)OCc1ccccc1)C(=O)N[C@@H](CCCCN)C(=O)N[C@@H](CCC(=O)O)C(=O)O` (mixture of isomers) [compound 39, Z--Phe .PSI. (PO2 CH2)Ala--Lys--Glu] registered a Ki in test [1] of 53.5 nM.
With `CSCC[C@H](NC(=O)[C@H](CCCNC(=N)N)NC(=O)C(C)CP(=O)(O)C(Cc1ccccc1)NC(=O)OCc1ccccc1)C(=O)O` (mixture of isomers) [compound 42, Z--Phe .PSI. (PO2 CH2)Ala--Arg--Met], in test [1], affinity was put at a Ki of 0.067 nM, the “Ki expected for one of the diastereoisomers of the mixture” value was “approximately 15 pM”, the “affinity difference / power factor relative to Cpp-Ala-Pro-Phe-pAb” value is 440 and the “SELECTIVITY (ratio Ki24-16 /Ki24-15)” value amounted to 1312. In addition, the Ki in test [2] was 88 nM.
Take `N=C(N)NCCC[C@H](NC(=O)CCP(=O)(O)C(Cc1ccccc1)NC(=O)OCc1ccccc1)C(=O)N[C@@H](Cc1ccc(O)cc1)C(=O)O` (mixture of isomers) [compound 5, Z--Phe .PSI. (PO2 CH2)Gly--Arg--Tyr]: in test [1], the Ki was 3.6 nM and the “SELECTIVITY (ratio Ki24-16 /Ki24-15)” value is recorded as 165. In addition, in test [2], affinity was put at a Ki of 596 nM.
`CC(CP(=O)(O)C(Cc1ccccc1)NC(=O)OCc1ccccc1)C(=O)N[C@@H](CCCCN)C(=O)N[C@@H](Cc1c[nH]cn1)C(=O)O` (mixture of isomers) [compound 35, Z--Phe .PSI. (PO2 CH2)Ala--Lys--His] displayed a Ki in test [1] of 7.13 nM.
For `N=C(N)NCCC[C@H](NC(=O)[C@H](CCCNC(=N)N)NC(=O)CCP(=O)(O)C(Cc1ccccc1)NC(=O)OCc1ccccc1)C(=O)O` (mixture of isomers) [compound 12, Z--Phe .PSI. (PO2 CH2)Gly--Arg--Arg], in test [1], the Ki was determined as 14 nM and the “SELECTIVITY (ratio Ki24-16 /Ki24-15)” value worked out at 145. The molecule also yielded a Ki in test [2] of 2040 nM.
`N=C(N)NCCC[C@H](NC(=O)CCP(=O)(O)C(Cc1ccccc1)NC(=O)OCc1ccccc1)C(=O)NCC(=O)O` (mixture of isomers) [compound 11, Z--Phe .PSI. (PO2 CH2)Gly--Arg--Gly]: in test [1], the Ki is 13.8 nM and the “SELECTIVITY (ratio Ki24-16 /Ki24-15)” value was found to be 120. Moreover, the Ki in test [2] was found to be 1660 nM.
In the case of `CC(CP(=O)(O)C(Cc1ccccc1)NC(=O)OCc1ccccc1)C(=O)N[C@@H](CCCCN)C(=O)N[C@H](C(=O)O)C(C)C` (mixture of isomers) [compound 30, Z--Phe .PSI. (PO2 CH2)Ala--Lys--Val], the Ki in test [1] turned out to be 2.6 nM.
As for `CSCC[C@H](NC(=O)[C@H](CCCCN)NC(=O)C(C)CP(=O)(O)C(Cc1ccccc1)NC(=O)OCc1ccccc1)C(=O)O` (mixture of isomers) [compound 22, Z--Phe .PSI. (PO2 CH2)Ala--Lys--Met], in test [1], the affinity, expressed as Ki, was 0.115 nM and the “SELECTIVITY (ratio Ki24-16 /Ki24-15)” value turned out to be 1957. Also, in test [2], the affinity corresponds to a Ki of 225 nM.
On the same counts, the results for `CC(C)C[C@H](NC(=O)[C@H](CCCCN)NC(=O)C(C)CP(=O)(O)C(Cc1ccccc1)NC(=O)OCc1ccccc1)C(=O)O` (mixture of isomers) [compound 26, Z--Phe .PSI. (PO2 CH2)Ala--Lys--Leu] are 1.82 nM, 491 and 893 nM.
On to `CC(CP(=O)(O)C(Cc1ccccc1)NC(=O)OCc1ccccc1)C(=O)N[C@@H](CCCCN)C(=O)N[C@@H](Cc1c[nH]c2ccccc12)C(=O)O` (mixture of isomers) [compound 34, Z--Phe .PSI. (PO2 CH2)Ala--Lys--Trp], for which the Ki in test [1] came to 5.78 nM.
Consider `CC(CP(=O)(O)C(Cc1ccccc1)NC(=O)OCc1ccccc1)C(=O)N[C@@H](CCCCN)C(=O)N1CCC[C@H]1C(=O)O` (mixture of isomers) [compound 41, Z--Phe .PSI. (PO2 CH2)Ala--Lys--Pro], for which the affinity in test [1] corresponds to a Ki of 1030 nM.
Same read-out and setting: the same measure for `CC(CP(=O)(O)C(Cc1ccccc1)NC(=O)OCc1ccccc1)C(=O)N[C@@H](CCCCN)C(=O)N[C@@H](CCCCN)C(=O)O` (mixture of isomers) [compound 38, Z--Phe .PSI. (PO2 CH2)ASla--Lys--Lys]: 26.9 nM.
Same read-out and setting: then `CC(CP(=O)(O)C(Cc1ccccc1)NC(=O)OCc1ccccc1)C(=O)N[C@@H](CCCCN)C(=O)N[C@@H](Cc1ccc(O)cc1)C(=O)O` (mixture of isomers) [compound 29, Z--Phe .PSI. (PO2 CH2)Ala--Lys--Tyr], with 2.3 nM.
The same measure, in the same setting: then `CC(CP(=O)(O)C(Cc1ccccc1)NC(=O)OCc1ccccc1)C(=O)N[C@@H](CCCCN)C(=O)N[C@H](C(=O)O)[C@@H](C)O` (mixture of isomers) [compound 36, Z--Phe .PSI. (PO2 CH2)Ala--Lys--Thr], with 10.1 nM.
As for `CC(CP(=O)(O)C(Cc1ccccc1)NC(=O)OCc1ccccc1)C(=O)N[C@@H](CCCCN)C(=O)NCC(=O)O` (mixture of isomers) [compound 33, Z--Phe .PSI. (PO2 CH2)Ala--Lys--Gly], the affinity in test [1], expressed as Ki, was 5.1 nM.
On the same count and under the same terms, then `CC(CP(=O)(O)C(Cc1ccccc1)NC(=O)OCc1ccccc1)C(=O)N[C@@H](CCCCN)C(=O)N[C@@H](CCC(N)=O)C(=O)O` (mixture of isomers) [compound 28, Z--Phe .PSI. (PO2 CH2)Ala--Lys--Gln], with 2.18 nM; and `CC(CP(=O)(O)C(Cc1ccccc1)NC(=O)OCc1ccccc1)C(=O)N[C@@H](CCCCN)C(=O)N[C@@H](CCCNC(=N)N)C(=O)O` (mixture of isomers) [compound 31, Z--Phe .PSI. (PO2 CH2)Ala--Lys--Arg], with 3.17 nM.
Still for that read-out and setting: the same measure for `CC(CP(=O)(O)C(Cc1ccccc1)NC(=O)OCc1ccccc1)C(=O)N[C@@H](CCCCN)C(=O)N[C@@H](CO)C(=O)O` (mixture of isomers) [compound 37, Z--Phe .PSI. (PO2 CH2)Ala--Lys--Ser]: 11.9 nM.
